Reference: publication PMC12800093 (Nature Communications, 2025)
Where a SMILES comes first, the peptide text is derived from it. Where no end group is shown, it is not given here. [ ]: non-standard residue; d: D form.

What was measured:
[1] = system: hypoxia-induced NRP Mtb H37Ra; format: cell-based, M. tuberculosis
[2] = system: nutrient-starved NRP Mtb H37Rv; assay: Kill curves with nutrient-starved non-replicating Mtb; format: cell-based, M. tuberculosis
[3] = system: proliferating Mtb (H37Rv) cultures
[4] = system: Mtb-secreted proteases (mc^2 6230 supernatant); conditions: proteolytic Mtb (mc^2 6230) supernatant, two weeks (0, 1, 7, 14 d), HPLC; n = 3 technical replicates
[5] = Human serum proteolytic stability; format: in vitro ADME; conditions: observed during serum proteolysis experiments, 25% v/v human serum

Compound	activity under hypoxic conditions [1]	activity under nutrient starvation conditions [2]	incubation time at which regrowth of treated Mtb cultures was permitted [3] [days]	reduction in the first week of exposure [3]	Stability in the presence of Mtb-secreted proteases [4]	binding to human serum proteins [5]
NNC(=O)c1ccncc1 [INH, isoniazid, reference compound]	inactive	inactive	3	~ 2 log		
CC(C)[C@@H](NC(=O)[C@H](N)Cc1c[nH]c2ccccc12)C(=O)N[C@@H](C(=O)N[C@H](Cc1c[nH]c2ccccc12)C(=O)N[C@H](Cc1c[nH]cn1)C(=O)N[C@H](CCCNC(=N)N)C(=O)N[C@H](CCCNC(=N)N)C(=O)N[C@H](Cc1c[nH]c2ccccc12)C(=O)N[C@H](Cc1c[nH]c2ccccc12)C(=O)N[C@H](Cc1c[nH]cn1)C(=O)N[C@H](Cc1c[nH]c2ccccc12)C(=O)N[C@H](CCCNC(=N)N)C(=O)N[C@H](CCCCN)C(N)=O)C(C)C [MAD1-RI] (H-[dW][dV][dV][dW][dH][dR][dR][dW][dW][dH][dW][dR][dK]-NH2)					generally remained stable up to two weeks	significant binding
KRWHWWRRHWVVW-NH2 [MAD1]					completely proteolyzed after 14 days	
